Experimental data reported in ChEMBL document CHEMBL1201862, “PubChem BioAssay data set” (2004).
Calls of active or inactive are those of the source.

What was measured:
[1] = target: T1, Polyadenylate-binding protein 1 (Homo sapiens, UniProt P11940); assay: MLLE binding blockers, Cy5 peptide tracer – biochemical, fluorescence polarization, Cy5-PAM2 peptide, secondary, miRNA deadenylation inhibitor project, dose response (AID 602260); type: functional; settings: read-out: IC50_Mean
[2] = target: T1, Polyadenylate-binding protein 1; assay: MLLE domain peptide-binding blockers, IC50 – biochemical, fluorescence polarization, FITC-PAM2 peptide, dose response (AID 602259); type: functional; settings: read-out: IC50_Mean
Cytochrome P450 2C19 = Cytochrome P450 2C19 (Homo sapiens, UniProt P33261); assay: Cytochrome panel assay with activity outcomes. Panel member name: p450-cyp2c19 Compounds with AC50 equal or less than 10 uM are considered active; type: functional; settings: read-out: AC50
Cytochrome P450 3A4 = Cytochrome P450 3A4 (Homo sapiens, UniProt P08684);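 further: CYP3A4 tested as one member of a cytochrome P450 panel screen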
Cytochrome P450 2C9 = Cytochrome P450 2C9 (Homo sapiens, UniProt P11712)
Tumor necrosis factor = Tumor necrosis factor (Homo sapiens, UniProt P01375); assay: analog potency on TNFa NF-kB signaling – cell-based, revised, SAR follow-up (AID 2337); type: functional
HEK293 = assay: cells; settings: Homo sapiens;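 further: cells exposed to compound for 14 hours overnight before viability readout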
[3] = target: T2, Short transient receptor potential channel 4 (Mus musculus, UniProt Q9QUQ5); assay: block of DAMGO-driven TRPC4 calcium entry – cell-based, HEK293 TRPC4/mu-opioid, Fluo-4 calcium, dose response (AID 434942); type: functional;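 further: potency of inhibitors blocking the TRPC4 calcium response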
T2 sequence (Q9QUQ5 whole entry): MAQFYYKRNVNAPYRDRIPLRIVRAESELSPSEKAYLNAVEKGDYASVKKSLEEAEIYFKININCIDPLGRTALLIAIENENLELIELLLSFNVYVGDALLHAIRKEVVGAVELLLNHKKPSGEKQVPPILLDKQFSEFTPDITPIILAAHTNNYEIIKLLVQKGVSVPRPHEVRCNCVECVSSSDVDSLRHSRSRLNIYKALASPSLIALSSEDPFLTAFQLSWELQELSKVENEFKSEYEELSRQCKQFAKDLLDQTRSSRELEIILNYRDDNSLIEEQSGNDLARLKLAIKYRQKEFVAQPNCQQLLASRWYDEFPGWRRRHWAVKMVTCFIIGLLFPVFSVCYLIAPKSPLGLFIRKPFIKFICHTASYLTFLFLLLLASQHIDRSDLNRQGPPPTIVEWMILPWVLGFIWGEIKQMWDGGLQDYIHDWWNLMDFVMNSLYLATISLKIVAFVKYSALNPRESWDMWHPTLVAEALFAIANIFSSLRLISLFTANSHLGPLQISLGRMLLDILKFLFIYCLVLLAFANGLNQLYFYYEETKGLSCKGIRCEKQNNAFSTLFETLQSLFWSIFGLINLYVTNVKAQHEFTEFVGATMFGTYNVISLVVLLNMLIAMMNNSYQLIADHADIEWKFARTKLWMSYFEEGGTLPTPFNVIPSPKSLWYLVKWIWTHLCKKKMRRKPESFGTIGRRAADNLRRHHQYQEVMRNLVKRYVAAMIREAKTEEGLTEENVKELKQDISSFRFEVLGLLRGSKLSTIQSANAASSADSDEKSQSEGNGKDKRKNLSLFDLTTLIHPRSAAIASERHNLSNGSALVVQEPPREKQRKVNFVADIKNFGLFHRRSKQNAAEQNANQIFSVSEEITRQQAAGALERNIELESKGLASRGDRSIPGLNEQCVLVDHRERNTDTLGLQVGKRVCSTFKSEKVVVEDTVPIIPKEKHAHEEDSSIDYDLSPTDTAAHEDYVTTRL

[4] = intracellular Trypanosoma cruzi inhibitors in host cells – cell-based, plate reader, cherry-pick samples, set 3, dose response (AID 651818); type: functional;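 further: compounds incubated with infected cells for about four days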
[5] = blockers of HIV-1 envelope-mediated cell-cell fusion – cherry-pick, dose response (AID 652057); type: functional, cell-based
[6] = viability loss in CEM21 cells – cell-based, CellTiter-Glo luminescence, cherry-picked, cytotoxicity control for viral fusion inhibitor project, dose response (AID 652042); type: functional;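 further: potency for signal decrease meaning cytotoxicity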
[7] = blockers of HIV-1 ZM109 envelope-driven cell-cell fusion – HeLa effector, CEM target cells, luciferase, cherry-pick, dose response (AID 652058); type: functional, cell-based;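 further: luciferase signal from HIV-1 Env mediated cell-cell fusion of effector and target cells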
[8] = HIV-1 AD8 envelope cell-cell fusion blockers – cherry-pick, dose response (AID 652062); type: functional, cell-based;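 further: luciferase signal from cell-cell fusion driven by HIV-1 clade B AD8 Env; potency is for inhibitors of fusion seen as a drop in luminescence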
[9] = test system: Streptococcus sp. 'group A'; assay: Streptococcus pyogenes SK(-)GAS viability under kanamycin – luminescence, BacTiterGlo, confirmation, counter-screen for streptokinase expression inhibitor project, dose response (AID 1900); type: functional, organism-based
Streptokinase A = target: T3, Streptokinase A (Streptococcus pyogenes serotype M1, UniProt P10520); assay: viability-normalized secreted streptokinase activity reduction – plasminogen activation absorbance, OD405, dose response (AID 1914); type: functional, Streptococcus pyogenes M1 GAS;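 further: secreted streptokinase activity via plasminogen activation per viability signal from cell pellet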
T3 sequence (P10520 whole entry): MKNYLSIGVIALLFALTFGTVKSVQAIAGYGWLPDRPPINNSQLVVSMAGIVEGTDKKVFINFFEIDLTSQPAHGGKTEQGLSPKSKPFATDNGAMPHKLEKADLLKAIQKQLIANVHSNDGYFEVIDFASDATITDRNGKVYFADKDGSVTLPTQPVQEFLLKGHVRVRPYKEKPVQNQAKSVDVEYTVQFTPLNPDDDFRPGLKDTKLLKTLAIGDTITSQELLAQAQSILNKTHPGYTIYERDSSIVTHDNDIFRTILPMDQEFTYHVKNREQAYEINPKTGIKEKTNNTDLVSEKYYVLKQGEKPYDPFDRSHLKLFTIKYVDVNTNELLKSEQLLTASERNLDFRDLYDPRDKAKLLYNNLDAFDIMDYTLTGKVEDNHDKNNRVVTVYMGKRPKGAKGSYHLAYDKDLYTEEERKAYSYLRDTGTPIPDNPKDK

Streptococcus = assay: GAS UMAA2166 growth inhibition – luminescence, BacTiterGlo, counter-screen for streptokinase expression inhibitor project, dose response (AID 1915); type: functional, organism-based;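 further: potency for reduction of bacterial viability or growth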
[10] = off-target signal loss in HeLa-CEM21 co-culture – HeLa F-luc CTL cells, cherry-picked, counter-screen for HIV-1 Env fusion inhibitor project, dose response (AID 652040); type: functional, cell-based;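 further: potency for signal decrease marking cytotoxic or nonspecific inhibition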
Cytochrome P450 1A2 = target: T4, Cytochrome P450 1A2 (Homo sapiens, UniProt P05177);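 further: PubChem cytochrome P450 panel assay, CYP1A2 panel member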
T4 sequence (P05177 whole entry): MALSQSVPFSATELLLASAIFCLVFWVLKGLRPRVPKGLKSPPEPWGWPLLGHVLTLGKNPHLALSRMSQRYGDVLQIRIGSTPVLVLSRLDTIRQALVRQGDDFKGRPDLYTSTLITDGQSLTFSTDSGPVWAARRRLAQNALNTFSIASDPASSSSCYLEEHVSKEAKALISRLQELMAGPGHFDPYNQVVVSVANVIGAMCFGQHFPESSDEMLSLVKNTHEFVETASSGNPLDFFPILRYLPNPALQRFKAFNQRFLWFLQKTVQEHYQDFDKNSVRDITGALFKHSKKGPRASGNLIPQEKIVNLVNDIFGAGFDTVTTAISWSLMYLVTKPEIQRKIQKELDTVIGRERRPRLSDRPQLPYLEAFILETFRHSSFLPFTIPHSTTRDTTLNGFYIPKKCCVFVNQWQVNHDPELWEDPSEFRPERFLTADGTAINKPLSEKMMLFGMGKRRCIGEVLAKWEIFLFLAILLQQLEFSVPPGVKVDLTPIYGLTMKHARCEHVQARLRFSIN

T1 sequence (P11940 whole entry, the tested form may be a part): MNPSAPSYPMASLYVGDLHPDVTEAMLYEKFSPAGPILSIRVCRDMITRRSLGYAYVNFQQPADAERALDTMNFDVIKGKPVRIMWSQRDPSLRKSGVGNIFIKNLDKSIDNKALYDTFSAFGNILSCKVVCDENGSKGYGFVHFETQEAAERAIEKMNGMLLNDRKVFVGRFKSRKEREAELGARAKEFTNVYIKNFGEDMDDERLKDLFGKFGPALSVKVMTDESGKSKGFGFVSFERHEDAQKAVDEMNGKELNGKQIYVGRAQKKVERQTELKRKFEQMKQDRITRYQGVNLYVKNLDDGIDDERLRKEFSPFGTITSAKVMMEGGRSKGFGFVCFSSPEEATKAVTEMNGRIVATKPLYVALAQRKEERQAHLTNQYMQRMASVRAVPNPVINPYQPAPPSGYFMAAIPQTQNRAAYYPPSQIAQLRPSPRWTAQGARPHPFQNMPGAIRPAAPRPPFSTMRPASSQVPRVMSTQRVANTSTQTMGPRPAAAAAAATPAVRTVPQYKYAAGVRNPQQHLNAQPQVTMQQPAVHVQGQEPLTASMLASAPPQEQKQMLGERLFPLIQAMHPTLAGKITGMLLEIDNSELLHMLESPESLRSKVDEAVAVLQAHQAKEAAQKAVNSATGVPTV
Chain of Cytochrome P450 2C9 (P11712 whole entry): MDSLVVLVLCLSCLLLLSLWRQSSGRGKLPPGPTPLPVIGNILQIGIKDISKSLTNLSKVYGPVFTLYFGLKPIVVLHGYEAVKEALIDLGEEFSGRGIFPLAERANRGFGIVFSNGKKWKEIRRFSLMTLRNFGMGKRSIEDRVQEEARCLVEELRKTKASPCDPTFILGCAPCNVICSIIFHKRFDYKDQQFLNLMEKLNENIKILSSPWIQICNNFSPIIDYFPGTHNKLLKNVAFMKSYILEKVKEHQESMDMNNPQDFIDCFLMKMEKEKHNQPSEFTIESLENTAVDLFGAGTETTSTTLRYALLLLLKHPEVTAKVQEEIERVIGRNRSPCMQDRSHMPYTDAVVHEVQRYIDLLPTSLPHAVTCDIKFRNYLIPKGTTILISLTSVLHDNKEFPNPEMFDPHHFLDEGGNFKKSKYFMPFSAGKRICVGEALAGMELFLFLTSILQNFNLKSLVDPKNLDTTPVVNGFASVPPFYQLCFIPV
Chain of Cytochrome P450 2C19 (P33261 whole entry): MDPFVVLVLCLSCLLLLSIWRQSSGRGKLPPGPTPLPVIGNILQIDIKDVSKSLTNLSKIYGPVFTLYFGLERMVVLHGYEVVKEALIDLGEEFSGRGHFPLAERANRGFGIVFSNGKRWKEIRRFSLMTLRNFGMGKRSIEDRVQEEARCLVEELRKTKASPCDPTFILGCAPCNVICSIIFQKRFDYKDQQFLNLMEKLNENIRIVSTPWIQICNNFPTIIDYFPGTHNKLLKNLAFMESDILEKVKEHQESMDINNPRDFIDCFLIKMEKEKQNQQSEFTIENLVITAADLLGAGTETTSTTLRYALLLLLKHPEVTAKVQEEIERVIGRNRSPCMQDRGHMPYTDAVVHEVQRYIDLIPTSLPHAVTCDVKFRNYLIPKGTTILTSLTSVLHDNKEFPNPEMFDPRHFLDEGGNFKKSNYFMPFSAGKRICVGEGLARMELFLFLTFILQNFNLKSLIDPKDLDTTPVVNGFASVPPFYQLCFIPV
Chain of Tumor necrosis factor (P01375 whole entry): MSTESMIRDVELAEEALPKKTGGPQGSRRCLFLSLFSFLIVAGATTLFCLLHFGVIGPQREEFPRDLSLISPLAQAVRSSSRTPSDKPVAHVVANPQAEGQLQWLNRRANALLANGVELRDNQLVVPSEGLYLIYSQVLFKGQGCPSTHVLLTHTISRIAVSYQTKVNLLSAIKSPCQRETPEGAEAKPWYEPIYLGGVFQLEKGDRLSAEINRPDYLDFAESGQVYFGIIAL
Chain of Cytochrome P450 3A4 (P08684 whole entry): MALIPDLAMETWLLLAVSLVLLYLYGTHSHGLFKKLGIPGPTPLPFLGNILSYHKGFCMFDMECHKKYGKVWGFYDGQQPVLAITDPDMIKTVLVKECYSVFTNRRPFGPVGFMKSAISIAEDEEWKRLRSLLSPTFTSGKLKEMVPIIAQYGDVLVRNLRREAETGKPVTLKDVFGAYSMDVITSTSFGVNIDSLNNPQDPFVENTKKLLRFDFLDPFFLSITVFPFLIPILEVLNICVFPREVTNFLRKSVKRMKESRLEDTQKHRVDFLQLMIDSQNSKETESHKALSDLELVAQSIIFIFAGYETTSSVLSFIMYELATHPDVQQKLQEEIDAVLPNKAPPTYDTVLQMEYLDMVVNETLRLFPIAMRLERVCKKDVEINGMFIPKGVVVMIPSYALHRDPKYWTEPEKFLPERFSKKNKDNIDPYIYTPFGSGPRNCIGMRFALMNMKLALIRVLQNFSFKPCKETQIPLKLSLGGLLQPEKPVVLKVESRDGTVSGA

CN1CCN(C2=C(Cl)C(=O)N(CCc3ccccc3)C2=O)CC1
IC50 [1]: > 66 µM (inactive) | IC50 [2]: 49.1 µM (inactive)

COc1ccc(S(=O)(=O)N2CCC[C@H]2C(=O)NC2=NCCS2)cc1
AC50 (Cytochrome P450 2C19): 35.5 µM (inconclusive) | AC50 (Cytochrome P450 3A4): 17.8 µM (inconclusive) | AC50 (Cytochrome P450 2C9): inconclusive

CC(=O)N1CCc2cc(S(=O)(=O)N3CCN(c4ccc(Cl)cc4)CC3)ccc21
IC50 (Tumor necrosis factor): > 20 µM (inactive) | IC50 (HEK293): > 20 µM (inactive)

CCOC(=O)C1(Cc2cccc(OC)c2)CCN(Cc2ccc(OC)c(O)c2)CC1
EC50 [3]: 0.944 µM (active)

CC1(C)CC2=Nc3ccccc3NC(c3ccccc3F)C2=C(O)C1 (centres undefined)
IC50 [1]: > 66 µM (inactive) | IC50 [2]: > 66 µM (inactive)

Cc1noc(C)c1S(=O)(=O)Nc1ccc2c(c1)CC(=O)N([C@H](C)CO)C[C@@H](C)[C@@H](CN(C)Cc1ccc(C(=O)Nc3ccccc3N)cc1)O2
AC50 [4]: 3.1 µM (active)

Cc1noc(C)c1S(=O)(=O)Nc1ccc2c(c1)CC(=O)N([C@H](C)CO)C[C@@H](C)[C@H](CN(C)Cc1ccc(Cl)c(Cl)c1)O2
AC50 [4]: 6.32 µM (active)

Cc1ccc(S(=O)(=O)Nc2ccc3c(c2)CC(=O)N([C@@H](C)CO)C[C@@H](C)[C@@H](CN(C)Cc2ccc(-c4ccccc4)cc2)O3)cc1
AC50 [4]: 3.03 µM (active)

C[C@H]1CN([C@@H](C)CO)C(=O)c2cccc(NS(=O)(=O)c3ccccc3)c2O[C@H]1CN(C)Cc1ccc(Oc2ccccc2)cc1
AC50 [4]: 6.61 µM (active)

C[C@@H]1CCCCO[C@H](CN(C)CC2CCCCC2)[C@@H](C)CN([C@H](C)CO)C(=O)c2cc(NC(=O)Nc3ccc(F)cc3)ccc2O1
AC50 [4]: 2.33 µM (active)

COc1ccc(CNC(=O)N(C)C[C@H]2OCc3ccccc3-c3c(n(C)c4ccccc34)C(=O)N([C@H](C)CO)C[C@@H]2C)cc1
AC50 [5]: < 0.26 µM (active) | AC50 [6]: 60.8 µM (active) | AC50 [7]: < 0.26 µM (active) | AC50 [8]: < 0.26 µM (active)

CN1CC(c2ccc(Cl)c(Cl)c2)[C@@]2(COc3ccccc3C2=O)[C@@]12C(=O)Nc1ccccc12 (some centres undefined)
EC50 [9]: 2.96 µM (active) | EC50 (Streptokinase A): 1.55 µM (active) | EC50 (Streptococcus): > 150 µM (not active) | AC50 [5]: 9.06 µM (active) | AC50 [6]: 45.7 µM (active) | AC50 [7]: 9.1 µM (active) | AC50 [10]: 14.7 µM (active) | AC50 [8]: 31.3 µM (active)

COc1ccc(CNc2ncnc3ccc(-c4ccccc4CN(C)C)cc23)c(OC)c1
AC50 (Cytochrome P450 1A2): 31.6 µM (inconclusive) | AC50 (Cytochrome P450 2C9): inconclusive
